Our source for the residual activity values is ChEMBL document CHEMBL1152560, “Substituted 2-arylbenzothiazoles as kinase inhibitors: hit-to-lead optimization” (Bioorg Med Chem, 2009).

The target of experiment [1] is Serine/threonine-protein kinase PAK 3 (Homo sapiens) (UniProt O75914). In words: Residual activity of PAK3 at 0.1 uM by microplate scintillation counting.
The target in experiment [2] is T1, Serine/threonine-protein kinase 4 (Homo sapiens) (UniProt Q13043).
T1 sequence (whole entry): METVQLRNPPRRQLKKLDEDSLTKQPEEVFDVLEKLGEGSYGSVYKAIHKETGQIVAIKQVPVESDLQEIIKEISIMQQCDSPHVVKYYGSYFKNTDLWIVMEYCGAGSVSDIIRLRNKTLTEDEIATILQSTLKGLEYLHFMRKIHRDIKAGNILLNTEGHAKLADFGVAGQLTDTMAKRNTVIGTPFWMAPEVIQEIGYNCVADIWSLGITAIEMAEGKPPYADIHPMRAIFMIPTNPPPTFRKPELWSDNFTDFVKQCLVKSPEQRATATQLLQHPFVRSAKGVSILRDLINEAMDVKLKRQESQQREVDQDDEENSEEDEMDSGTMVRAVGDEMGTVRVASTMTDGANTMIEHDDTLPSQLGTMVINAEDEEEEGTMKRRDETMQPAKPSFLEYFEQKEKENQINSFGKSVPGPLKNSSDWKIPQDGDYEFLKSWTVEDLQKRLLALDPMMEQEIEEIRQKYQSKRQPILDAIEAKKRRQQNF
In words: Residual activity of MST1 at 10 uM by microplate scintillation counting.

Experiment [3] has as its target Cyclin-dependent kinase 4/cyclin D1 (Homo sapiens) (UniProt P11802+P24385). In words: Residual activity of CDK4/Cyclin D1 at 10 uM by microplate scintillation counting. It counts as protein-complex assay.
Experiment [4] has as its target T2, Beta-adrenergic receptor kinase 1 (Homo sapiens) (UniProt P25098).
T2 sequence (whole entry): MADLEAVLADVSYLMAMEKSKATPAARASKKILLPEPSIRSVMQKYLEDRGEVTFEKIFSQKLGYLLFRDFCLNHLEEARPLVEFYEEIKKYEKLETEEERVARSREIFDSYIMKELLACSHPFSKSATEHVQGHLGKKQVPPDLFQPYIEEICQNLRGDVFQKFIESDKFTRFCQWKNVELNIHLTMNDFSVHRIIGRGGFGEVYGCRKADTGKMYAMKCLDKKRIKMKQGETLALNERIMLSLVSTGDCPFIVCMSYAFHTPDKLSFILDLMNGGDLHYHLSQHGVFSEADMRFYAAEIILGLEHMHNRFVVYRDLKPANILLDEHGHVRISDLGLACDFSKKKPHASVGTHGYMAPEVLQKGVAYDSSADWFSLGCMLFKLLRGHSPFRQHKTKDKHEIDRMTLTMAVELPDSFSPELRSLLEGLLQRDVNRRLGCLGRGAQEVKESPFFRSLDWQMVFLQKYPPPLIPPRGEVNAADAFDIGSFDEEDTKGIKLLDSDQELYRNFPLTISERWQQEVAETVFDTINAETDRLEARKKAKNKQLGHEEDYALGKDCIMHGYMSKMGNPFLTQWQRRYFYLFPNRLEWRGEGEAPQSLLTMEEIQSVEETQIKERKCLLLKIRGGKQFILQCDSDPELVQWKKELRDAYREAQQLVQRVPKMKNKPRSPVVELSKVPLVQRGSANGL
The experiment can be described thus: Residual activity of GRK2 at 1 uM by microplate scintillation counting.

Experiment [5] has as its system Epidermal growth factor receptor (Homo sapiens), P00533 [T790M]. In words: Residual activity of EGFR T790M mutant at 1 uM by microplate scintillation counting.
Experiment [6] has as its target T3, NUAK family SNF1-like kinase 1 (Homo sapiens) (UniProt O60285).
T3 sequence (whole entry): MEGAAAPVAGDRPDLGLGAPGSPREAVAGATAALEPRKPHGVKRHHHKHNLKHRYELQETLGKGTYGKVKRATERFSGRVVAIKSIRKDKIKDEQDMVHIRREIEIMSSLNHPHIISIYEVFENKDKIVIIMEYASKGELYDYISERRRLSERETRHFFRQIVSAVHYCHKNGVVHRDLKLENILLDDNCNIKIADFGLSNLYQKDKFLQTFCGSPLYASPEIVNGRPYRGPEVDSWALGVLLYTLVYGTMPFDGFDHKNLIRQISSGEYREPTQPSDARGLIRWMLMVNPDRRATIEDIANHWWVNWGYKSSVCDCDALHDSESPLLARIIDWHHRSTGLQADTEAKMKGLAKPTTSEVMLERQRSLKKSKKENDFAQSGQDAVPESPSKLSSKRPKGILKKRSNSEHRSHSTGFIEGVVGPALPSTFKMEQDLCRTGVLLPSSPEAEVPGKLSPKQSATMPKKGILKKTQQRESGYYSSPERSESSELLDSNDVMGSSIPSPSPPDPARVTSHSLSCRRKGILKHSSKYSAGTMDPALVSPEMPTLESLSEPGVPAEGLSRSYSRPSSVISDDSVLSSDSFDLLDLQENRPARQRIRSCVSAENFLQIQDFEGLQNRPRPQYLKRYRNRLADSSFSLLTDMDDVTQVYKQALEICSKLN
The experiment can be described thus: Residual activity of ARK5 at 1 uM by microplate scintillation counting.

Experiment [7] addresses G protein-coupled receptor kinase 6 (Homo sapiens) (UniProt P43250). The experiment can be described thus: Residual activity of GRK6 at 0.1 uM by microplate scintillation counting.
Experiment [8] has as its target Mitogen-activated protein kinase kinase kinase 14 (Homo sapiens) (UniProt Q99558). The experiment can be described thus: Residual activity of NIK at 1 uM by microplate scintillation counting.
For experiment [9], the target named is CDK1/Cyclin E (Homo sapiens) (UniProt P06493+P24864). In words: Residual activity of CDK1/Cyclin E at 0.1 uM by microplate scintillation counting. The experiment is classed as protein-complex assay.
CDK1/Cyclin E (Homo sapiens), sequence (P06493 whole entry, looked up): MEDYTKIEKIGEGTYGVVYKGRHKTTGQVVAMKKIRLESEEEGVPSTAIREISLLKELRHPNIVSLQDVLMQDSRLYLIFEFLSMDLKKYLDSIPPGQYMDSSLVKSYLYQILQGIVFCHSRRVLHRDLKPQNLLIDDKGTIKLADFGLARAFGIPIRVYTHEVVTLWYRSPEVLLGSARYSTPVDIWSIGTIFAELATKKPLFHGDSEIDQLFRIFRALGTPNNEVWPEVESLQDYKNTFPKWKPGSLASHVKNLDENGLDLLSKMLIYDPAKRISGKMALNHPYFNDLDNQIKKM
CDK1/Cyclin E (Homo sapiens), sequence (P24864 whole entry, looked up): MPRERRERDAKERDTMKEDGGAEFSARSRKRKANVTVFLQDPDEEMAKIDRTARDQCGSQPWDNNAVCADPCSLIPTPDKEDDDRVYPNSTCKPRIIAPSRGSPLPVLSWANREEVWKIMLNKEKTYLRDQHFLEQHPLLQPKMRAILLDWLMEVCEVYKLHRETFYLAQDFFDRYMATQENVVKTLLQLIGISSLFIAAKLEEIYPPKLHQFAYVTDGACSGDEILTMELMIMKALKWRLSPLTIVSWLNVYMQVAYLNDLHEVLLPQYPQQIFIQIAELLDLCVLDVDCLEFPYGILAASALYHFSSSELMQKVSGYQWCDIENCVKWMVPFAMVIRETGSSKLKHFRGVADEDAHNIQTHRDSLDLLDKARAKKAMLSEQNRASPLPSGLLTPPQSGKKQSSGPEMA
For experiment [10], the target named is 3-phosphoinositide-dependent protein kinase 1 (Homo sapiens) (UniProt O15530). In words: Residual activity of PDK1 at 1 uM by microplate scintillation counting.
3-phosphoinositide-dependent protein kinase 1 (Homo sapiens), sequence (O15530 whole entry, looked up): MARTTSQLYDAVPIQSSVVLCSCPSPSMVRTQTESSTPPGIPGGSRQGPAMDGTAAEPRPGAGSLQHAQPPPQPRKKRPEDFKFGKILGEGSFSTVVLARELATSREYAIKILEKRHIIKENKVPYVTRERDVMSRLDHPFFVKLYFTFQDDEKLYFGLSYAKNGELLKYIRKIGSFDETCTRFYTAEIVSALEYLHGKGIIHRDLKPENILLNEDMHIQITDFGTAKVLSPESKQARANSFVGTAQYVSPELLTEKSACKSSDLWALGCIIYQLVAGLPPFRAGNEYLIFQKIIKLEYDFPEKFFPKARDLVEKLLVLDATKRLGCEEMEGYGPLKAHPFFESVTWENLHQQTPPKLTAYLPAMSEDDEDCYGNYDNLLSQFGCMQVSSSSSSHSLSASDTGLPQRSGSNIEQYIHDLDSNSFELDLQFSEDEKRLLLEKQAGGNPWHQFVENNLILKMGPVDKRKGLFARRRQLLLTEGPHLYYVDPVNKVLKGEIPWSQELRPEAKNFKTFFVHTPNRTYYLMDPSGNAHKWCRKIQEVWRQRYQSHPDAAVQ
Experiment [11] deals with CDK4/Cyclin D3 (Homo sapiens) (UniProt P11802+P30281). In words: Residual activity of CDK4/Cyclin D3 at 10 uM by microplate scintillation counting. It counts as protein-complex assay.

G protein-coupled receptor kinase 6 (Homo sapiens), sequence (P43250 whole entry, looked up): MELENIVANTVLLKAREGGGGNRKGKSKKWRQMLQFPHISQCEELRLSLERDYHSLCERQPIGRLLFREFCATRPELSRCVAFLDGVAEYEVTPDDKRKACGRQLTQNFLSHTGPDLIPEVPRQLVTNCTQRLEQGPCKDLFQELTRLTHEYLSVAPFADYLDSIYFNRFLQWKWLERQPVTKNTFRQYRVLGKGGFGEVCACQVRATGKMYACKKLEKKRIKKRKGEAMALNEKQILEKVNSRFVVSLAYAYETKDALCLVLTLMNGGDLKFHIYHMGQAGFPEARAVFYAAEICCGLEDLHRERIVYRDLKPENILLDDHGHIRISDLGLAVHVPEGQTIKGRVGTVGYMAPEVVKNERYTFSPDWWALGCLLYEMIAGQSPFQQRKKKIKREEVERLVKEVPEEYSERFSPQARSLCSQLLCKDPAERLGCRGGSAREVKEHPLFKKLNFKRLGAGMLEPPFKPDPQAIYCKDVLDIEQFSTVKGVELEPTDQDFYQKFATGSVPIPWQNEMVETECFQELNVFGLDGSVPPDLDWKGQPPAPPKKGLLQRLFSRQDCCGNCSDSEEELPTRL
Serine/threonine-protein kinase PAK 3 (Homo sapiens), sequence (O75914 whole entry, looked up): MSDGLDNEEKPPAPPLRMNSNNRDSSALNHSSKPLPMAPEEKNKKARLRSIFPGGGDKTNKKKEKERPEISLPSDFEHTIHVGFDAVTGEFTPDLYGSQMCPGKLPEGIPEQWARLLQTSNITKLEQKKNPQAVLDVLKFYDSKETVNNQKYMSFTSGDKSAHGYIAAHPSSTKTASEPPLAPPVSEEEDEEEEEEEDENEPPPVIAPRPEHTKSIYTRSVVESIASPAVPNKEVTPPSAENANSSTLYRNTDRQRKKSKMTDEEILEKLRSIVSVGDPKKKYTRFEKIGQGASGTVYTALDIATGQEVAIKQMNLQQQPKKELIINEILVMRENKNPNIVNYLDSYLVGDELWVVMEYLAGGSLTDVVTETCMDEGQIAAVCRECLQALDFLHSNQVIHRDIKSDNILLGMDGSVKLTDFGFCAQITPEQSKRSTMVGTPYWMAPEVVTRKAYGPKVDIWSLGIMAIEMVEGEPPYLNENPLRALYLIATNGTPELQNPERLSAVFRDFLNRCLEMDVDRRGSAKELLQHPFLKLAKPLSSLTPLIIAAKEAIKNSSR
Mitogen-activated protein kinase kinase kinase 14 (Homo sapiens), sequence (Q99558 whole entry, looked up): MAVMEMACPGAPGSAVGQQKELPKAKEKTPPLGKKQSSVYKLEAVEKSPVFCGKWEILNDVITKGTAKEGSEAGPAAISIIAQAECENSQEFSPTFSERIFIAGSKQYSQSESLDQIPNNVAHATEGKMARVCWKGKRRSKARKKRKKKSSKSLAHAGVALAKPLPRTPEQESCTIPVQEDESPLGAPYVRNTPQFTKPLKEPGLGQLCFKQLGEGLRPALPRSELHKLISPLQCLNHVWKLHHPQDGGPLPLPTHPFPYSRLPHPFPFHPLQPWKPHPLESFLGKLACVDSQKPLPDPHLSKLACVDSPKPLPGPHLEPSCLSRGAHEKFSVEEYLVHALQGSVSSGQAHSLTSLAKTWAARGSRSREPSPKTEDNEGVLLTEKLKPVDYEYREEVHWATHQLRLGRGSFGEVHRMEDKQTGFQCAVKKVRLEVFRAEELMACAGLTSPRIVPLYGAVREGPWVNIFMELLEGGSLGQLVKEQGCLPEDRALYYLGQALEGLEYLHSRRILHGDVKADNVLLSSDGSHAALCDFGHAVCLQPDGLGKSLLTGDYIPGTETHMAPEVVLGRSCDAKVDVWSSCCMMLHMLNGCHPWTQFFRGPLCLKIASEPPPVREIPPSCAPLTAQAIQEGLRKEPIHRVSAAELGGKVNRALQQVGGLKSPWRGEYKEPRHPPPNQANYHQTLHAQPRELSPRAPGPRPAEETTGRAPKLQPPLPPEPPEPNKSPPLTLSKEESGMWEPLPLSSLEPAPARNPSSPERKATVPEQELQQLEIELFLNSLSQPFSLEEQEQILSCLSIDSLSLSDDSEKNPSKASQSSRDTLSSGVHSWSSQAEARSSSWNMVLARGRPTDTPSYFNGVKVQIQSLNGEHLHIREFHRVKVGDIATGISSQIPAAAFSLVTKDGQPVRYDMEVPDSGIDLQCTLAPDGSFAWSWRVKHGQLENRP

`COc1cc2c(Oc3ccc(-c4nc5ccccc5s4)cc3)ncnc2cc1OCCCN1CCN(C)CC1`: the residual activity in experiment [1] is 95%; in [2], 23%; in [3] it was 97%; in experiment [4] it was 105%; in experiment [5] it was 88%; in [6] it was 88%. For the same compound, the residual activity in experiment [7] amounted to 79%; in experiment [8] it was 85%; in [9] it was 85%; in [10], 101%; in experiment [11], 105%.
With `COc1cc2c(Oc3ccc(-c4nc5ccccc5s4)cc3)ncnc2cc1OCCCN1CCCC1`, the residual activity in experiment [1] turned out to be 95%; in experiment [2], 30%; in experiment [3], 101%; in experiment [4], 97%; in experiment [5] it was 85%; in experiment [6], 91%. The residual activity came to 88% in [7]; 93% in [8]; 78% in experiment [9]; 102% in experiment [10]; 98% in [11].
`COc1cc2c(Oc3ccc(-c4nc5ccccc5s4)cc3F)ncnc2cc1OCCCN1CCN(C)CC1`: the residual activity in experiment [1] stood at 97%; in experiment [2] it was 26%; in experiment [3] it was 99%; in experiment [4] it was 85%; in [5], 88%; in experiment [6] it was 101%. The residual activity in experiment [7] was 88%; in [8], 88%; in experiment [9], 89%; in [10], 108%; in [11], 93%.
